In ChEMBL document CHEMBL5728971, “Small molecule inhibitors of lactate dehydrogenase and methods of use thereof” (2022):

Assay: Biochemical Assay: Test compounds were placed in a Greiner Bio-One (Monroe, N.C.) 1536-well black solid bottom assay plate. 200 millimolar (mM) Tris HCl, pH 7.4, 100 micromolar (μM) EDTA and 0.01% TWEEN-20™, final concentration, was used as the assay buffer. The LDHA reagent was 2 nanomolar (nM) Human LDHA (Meridian Life Science, Inc., Memphis, Tenn.), final concentration, in assay buffer.
For `NS(=O)(=O)c1ccc(Cc2c(-c3cccc(OC4CCCC4)c3)nn(-c3nc(C(=O)O)cs3)c2CC2CC2)cc1F`, the IC50 was < 100 nM.
For `C/C=C/c1cc(-c2nn(-c3nc(C(=O)O)cs3)c(CC3CC3)c2Cc2ccc(S(N)(=O)=O)c(F)c2)ccc1F`, the IC50 was < 100 nM.
With `NS(=O)(=O)c1ccc(Cc2c(CC3CC3)nn(-c3nc(C(=O)O)cs3)c2-c2cccc(-c3ccccc3)c2)cc1F` the IC50 was “in the range around 29000 nM”.
With `COc1cccc(-c2cccc(-c3nn(-c4nc(C(=O)O)cs4)c(C4CC4)c3Cc3ccc(S(N)(=O)=O)cc3F)c2)c1` the IC50 was < 100 nM.
For `CC(C)c1cc(-c2nn(-c3nc(C(=O)O)cs3)c(CC3CC3)c2Cc2ccc(S(N)(=O)=O)c(F)c2)ccc1F`, the IC50 was < 100 nM.
With `CC1(C#Cc2cc(-c3nn(-c4nc(C(=O)O)cs4)c(CC4CC4)c3Cc3ccc(S(N)(=O)=O)c(F)c3)ccc2F)COC1` the IC50 was < 100 nM.
In the case of `Cc1noc(C)c1-c1cc(-c2c(Cc3ccc(S(N)(=O)=O)c(F)c3)c(CC3CC3)nn2-c2nc(C(=O)O)cs2)ccc1F`, the IC50 is reported as > 57000 nM.
For `Cc1ccc(-c2cccc(-c3c(Cc4ccc(S(N)(=O)=O)cc4)c(CC4CC4)nn3-c3nc(C(=O)O)cs3)c2)cc1`, the IC50 was “in the range around 29000 nM”.
With `CS(=O)(=O)c1ccc(Cc2c(-c3ccc(F)c(C#CCC4CCCO4)c3)nn(-c3nc(C(=O)O)cs3)c2CC2CC2)cc1F` (stereo not given) the IC50 was < 100 nM.
With `NS(=O)(=O)c1ccc(Cc2c(-c3ccc(F)c(C#CC4(F)CCCC4)c3)nn(-c3nc(C(=O)O)cs3)c2CC2CC2)cc1F` the IC50 was < 100 nM.
In the case of `Cc1noc(C)c1-c1cc(-c2nn(-c3nc(C(=O)O)cs3)c(CC3CC3)c2Cc2ccc(S(N)(=O)=O)cc2F)ccc1F`, the IC50 is reported as < 100 nM.
With `COc1cccc(-c2cc(-c3c(Cc4ccc(S(N)(=O)=O)c(F)c4)c(CC4CC4)nn3-c3nc(C(=O)O)cs3)ccc2F)c1` the IC50 was “in the range around 29000 nM”.
In the case of `CCOC(=O)c1csc(-n2nc(-c3ccc(F)c(C#Cc4ccc(C)s4)c3)c(Cc3ccc(S(N)(=O)=O)c(F)c3)c2CC2CC2)n1`, the IC50 is reported as > 57000 nM.
For `CCOC(=O)c1csc(-n2nc(CC3CC3)c(Cc3ccc(S(N)(=O)=O)cc3F)c2-c2ccc(F)c(-c3cccc(F)c3)c2)n1`, the IC50 was > 57000 nM.
With `NS(=O)(=O)c1ccc(Cc2c(-c3ccc(F)c(C#Cc4cccs4)c3)nn(-c3nc(C(=O)O)cs3)c2CC2CC2)cc1F` the IC50 was < 100 nM.
In the case of `NS(=O)(=O)c1ccc(Cc2c(-c3cccc(N4CCOCC4)c3)nn(-c3ncc(C(=O)O)s3)c2CC2CC2)cc1F`, the IC50 is reported as < 100 nM.
For `CC(C)c1ccc(-c2cc(-c3c(Cc4ccc(S(N)(=O)=O)cc4)c(CC4CC4)nn3-c3nc(C(=O)O)cs3)ccc2F)cc1`, the IC50 was “in the range around 29000 nM”.
In the case of `NS(=O)(=O)c1ccc(Cc2c(-c3cccc(C(O)(C4CC4)C(F)(F)F)c3)nn(-c3nc(C(=O)O)cs3)c2CC2CC2)cc1F` (stereo not given), the IC50 is reported as < 100 nM.
With `CN1CC=C(c2cc(-c3nn(-c4nc(C(=O)O)cs4)c(CC4CC4)c3Cc3ccc(S(N)(=O)=O)c(F)c3)ccc2F)CC1` the IC50 was < 100 nM.
For `CCOC(=O)c1csc(-n2nc(-c3ccc(F)c(-c4cccc(OC)c4)c3)c(Cc3ccc(S(N)(=O)=O)c(F)c3)c2CC2CC2)n1`, the IC50 was “in the range around 29000 nM”.
With `Cn1cc(-c2cc(-c3nn(-c4nc(C(=O)O)cs4)c(CC4CC4)c3Cc3ccc(S(N)(=O)=O)c(F)c3)ccc2F)cn1` the IC50 was < 100 nM.
In the case of `C=C(C)c1cc(-c2nn(-c3nc(C(=O)O)cs3)c(CC3CC3)c2Cc2ccc(S(N)(=O)=O)c(F)c2)ccc1F`, the IC50 is reported as < 100 nM.
For `NS(=O)(=O)c1ccc(Cc2c(-c3ccc(F)c(C#CC4(O)CCOC4)c3)nn(-c3nc(C(=O)O)cs3)c2CC2CC2)cc1F` (stereo not given), the IC50 was < 100 nM.
With `CCOC(=O)c1csc(-n2nc(-c3ccc(F)c(-c4cccc(F)c4)c3)c(Cc3ccc(S(N)(=O)=O)c(F)c3)c2C2CC2)n1` the IC50 was “in the range around 29000 nM”.
In the case of `CC(C)c1ccc(-c2cc(-c3nn(-c4nc(C(=O)O)cs4)c(CC4CC4)c3Cc3ccc(S(N)(=O)=O)cc3)ccc2F)cc1`, the IC50 is reported as < 100 nM.
With `NS(=O)(=O)c1ccc(Cc2c(-c3ccc(F)c(/C=C/C4CCCC4)c3)nn(-c3nc(C(=O)O)cs3)c2CC2CC2)cc1F` the IC50 was < 100 nM.
With `NS(=O)(=O)c1ccc(Cc2c(C3(C(F)(F)F)CC3)nn(-c3nc(C(=O)O)cs3)c2-c2cccc(-c3ccccc3)c2)cc1F` the IC50 was “in the range around 29000 nM”.
In the case of `COc1ccc(-c2cc(O)n(-c3nc(C(=O)O)cs3)n2)cc1`, the IC50 is reported as > 57000 nM.
For `NS(=O)(=O)c1ccc(Cc2c(-c3cccc(-c4ccc(F)cc4)c3)nn(-c3nc(C(=O)O)cs3)c2C2CC2)c(F)c1`, the IC50 was < 100 nM.
For `NS(=O)(=O)c1ccc(Cc2c(-c3ccc(F)c(C#CC4(F)CCOC4)c3)nn(-c3nc(C(=O)O)cs3)c2CC2CC2)cc1F` (stereo not given), the IC50 was < 100 nM.
In the case of `Cc1ccc(-c2cccc(-c3c(Cc4ccc(S(N)(=O)=O)c(F)c4)c(C4CC4)nn3-c3nc(C(=O)O)cs3)c2)cc1`, the IC50 is reported as “in the range around 29000 nM”.
In the case of `Cc1ccc(C#Cc2cccc(-c3nn(-c4nc(C(=O)O)cs4)c(CC4CC4)c3Cc3ccc(S(N)(=O)=O)c(F)c3)c2)s1`, the IC50 is reported as < 100 nM.
With `O=C(O)c1csc(-n2nc(-c3ccc(F)cc3F)cc2O)n1` the IC50 was > 57000 nM.
For `NS(=O)(=O)c1ccc(Cc2c(CC3CC3)nn(-c3nc(C(=O)O)cs3)c2-c2ccc(F)c(-c3ccc(F)cc3)c2)c(F)c1`, the IC50 was “in the range around 29000 nM”.
In the case of `NS(=O)(=O)c1ccc(Cc2c(CC3CC3)nn(-c3nc(C(=O)O)cs3)c2-c2ccc(F)c(-c3cccc(F)c3)c2)c(F)c1`, the IC50 is reported as “in the range around 29000 nM”.
For `Cn1cc(-c2cc(-c3nn(-c4nc(C(=O)O)cs4)c(CC4CC4)c3Cc3ccc(S(N)(=O)=O)cc3F)ccc2F)cn1`, the IC50 was < 100 nM.
For `NS(=O)(=O)c1ccc(Cc2c(-c3cccc(-c4cccc(F)c4)c3)nn(-c3nc(C(=O)O)cs3)c2CC2CC2)cc1`, the IC50 was < 100 nM.
With `NS(=O)(=O)c1ccc(Cc2c(-c3cccc(-c4cccc(F)c4)c3)nn(-c3nc(C(=O)O)cs3)c2C2CC2)cc1F` the IC50 was < 100 nM.
For `NS(=O)(=O)c1ccc(Cc2c(-c3ccc(F)c(-c4cccc(F)c4)c3)nn(-c3nc(C(=O)O)cs3)c2CC2CC2)c(F)c1`, the IC50 was < 100 nM.
For `CCOC(=O)c1csc(-n2nc(-c3ccc(F)c(-c4ccc(F)cc4)c3)c(Cc3ccc(S(N)(=O)=O)cc3F)c2CC2CC2)n1`, the IC50 was “in the range around 29000 nM”.
In the case of `NS(=O)(=O)c1ccc(Cc2c(-c3ccc(F)c(C4CCOCC4)c3)nn(-c3nc(C(=O)O)cs3)c2CC2CC2)cc1F`, the IC50 is reported as < 100 nM.
In the case of `C#Cc1cc(-c2nn(-c3nc(C(=O)O)cs3)c(CC3CC3)c2Cc2ccc(S(N)(=O)=O)c(F)c2)ccc1F`, the IC50 is reported as < 100 nM.
For `NS(=O)(=O)c1ccc(Cc2c(-c3ccc(F)c(-c4ccc(F)s4)c3)nn(-c3nc(C(=O)O)cs3)c2CC2CC2)cc1F`, the IC50 was < 100 nM.
With `NS(=O)(=O)c1ccc(Cc2c(-c3ccc(F)c(C#CC(F)F)c3)nn(-c3nc(C(=O)O)cs3)c2CC2CC2)cc1F` the IC50 was < 100 nM.
In the case of `NS(=O)(=O)c1ccc(Cc2c(-c3ccc(F)c(/C=C/C4CC4)c3)nn(-c3nc(C(=O)O)cs3)c2CC2CC2)cc1F`, the IC50 is reported as < 100 nM.
In the case of `Cc1ccc(-c2cc(-c3nn(-c4nc(C(=O)O)cs4)c(CC4CC4)c3Cc3ccc(S(N)(=O)=O)cc3F)ccc2F)cc1`, the IC50 is reported as < 100 nM.
For `CCOC(=O)c1csc(-n2nc(-c3ccccc3)c(Oc3ccc(S(N)(=O)=O)cc3)c2C2CCCCC2)n1`, the IC50 was > 57000 nM.
For `Cc1ccc(-c2cc(-c3nn(-c4nc(C(=O)O)cs4)c(CC4CC4)c3Cc3ccc(S(N)(=O)=O)c(F)c3)ccc2F)cc1`, the IC50 was < 100 nM.
With `CCOC(=O)c1csc(-n2nc(CC3CC3)c(Cc3ccc(S(N)(=O)=O)c(F)c3)c2-c2ccc(F)c(-c3cccc(F)c3)c2)n1` the IC50 was > 57000 nM.
With `CCOC(=O)c1csc(-n2nc(-c3cccc(-c4ccccc4)c3)c(Cc3ccc(S(N)(=O)=O)cc3F)c2C2CC2)n1` the IC50 was > 57000 nM.
With `NS(=O)(=O)c1ccc(Cc2c(-c3ccc(F)c(-c4cccc(F)c4)c3)nn(-c3nc(C(=O)O)cs3)c2C(F)(F)F)cc1` the IC50 was < 100 nM.
For `NS(=O)(=O)c1ccc(Cc2c(-c3ccc(F)c(-c4ccc(F)cc4)c3)nn(-c3nc(C(=O)O)cs3)c2C2CC2)cc1F`, the IC50 was < 100 nM.
For `O=C(O)c1csc(-n2nc(-c3ccc(F)c(F)c3)c(Cc3ccccc3)c2O)n1`, the IC50 was > 57000 nM.
For `COc1cccc(-c2cc(-c3nn(-c4nc(C(=O)O)cs4)c(C(F)(F)F)c3Cc3ccc(S(N)(=O)=O)cc3)ccc2F)c1`, the IC50 was < 100 nM.
In the case of `Cc1ccc(-c2cccc(-c3nn(-c4nc(C(=O)O)cs4)c(CC4CC4)c3Cc3ccc(S(N)(=O)=O)cc3F)c2)cc1`, the IC50 is reported as < 100 nM.
With `NS(=O)(=O)c1ccc(Cc2cn(-c3nc(C(=O)O)cs3)nc2-c2ccc(F)c(F)c2)cc1` the IC50 was < 100 nM.
For `Cc1ccc(-c2cc(-c3nn(-c4nc(C(=O)O)cs4)c(CC4CC4)c3Cc3ccc(S(N)(=O)=O)cc3)ccc2F)cc1`, the IC50 was < 100 nM.
In the case of `CN1CCC(c2cc(-c3nn(-c4nc(C(=O)O)cs4)c(CC4CC4)c3Cc3ccc(S(N)(=O)=O)c(F)c3)ccc2F)CC1`, the IC50 is reported as < 100 nM.
With `NS(=O)(=O)c1ccc(Cc2c(-c3ccc(F)c(-c4cccc(F)c4)c3)nn(-c3nc(C(=O)O)cs3)c2CC2CC2)cc1` the IC50 was < 100 nM.
In the case of `CC(C)(O)C#Cc1cc(-c2nn(-c3nc(C(=O)O)cs3)c(CC3CC3)c2Cc2ccc(S(N)(=O)=O)c(F)c2)ccc1F`, the IC50 is reported as < 100 nM.
For `CCOC(=O)c1csc(-n2nc(-c3ccc(F)c(C#CC4CCCC4)c3)c(Cc3ccc(S(N)(=O)=O)cc3)c2CC2CC2)n1`, the IC50 was “in the range around 29000 nM”.
With `Cc1ccc(-c2cccc(-c3nn(-c4nc(C(=O)O)cs4)c(CC4CC4)c3Cc3ccc(S(N)(=O)=O)cc3)c2)cc1` the IC50 was < 100 nM.
With `C=C(C)C#Cc1cc(-c2nn(-c3nc(C(=O)O)cs3)c(CC3CC3)c2Cc2ccc(S(N)(=O)=O)c(F)c2)ccc1F` the IC50 was < 100 nM.
For `NS(=O)(=O)c1ccc(Cc2c(-c3cccc(-c4ccccc4)c3)nn(-c3nc(C(=O)O)cs3)c2CC2CC2)cc1`, the IC50 was < 100 nM.
With `NS(=O)(=O)c1ccc(Oc2c(-c3ccccc3)nn(-c3nc(C(=O)O)cs3)c2C2CC2)cc1` the IC50 was < 100 nM.
For `NS(=O)(=O)c1ccc(Cc2c(-c3ccccc3)nn(-c3nc(C(=O)O)cs3)c2-c2ccccc2)cc1`, the IC50 was < 100 nM.
For `NS(=O)(=O)c1ccc(Cc2c(-c3ccc(F)c(-c4ccc(C5CC5)cc4)c3)nn(-c3nc(C(=O)O)cs3)c2CC2CC2)cc1`, the IC50 was < 100 nM.
With `CCOC(=O)c1csc(-n2nc(-c3ccc(F)c(-c4ccc(C)cc4)c3)c(Cc3ccc(S(N)(=O)=O)c(F)c3)c2C2CC2)n1` the IC50 was “in the range around 29000 nM”.
With `NS(=O)(=O)c1ccc(Cc2c(-c3ccc(F)c(CCCCC(F)(F)F)c3)nn(-c3nc(C(=O)O)cs3)c2CC2CC2)cc1F` the IC50 was < 100 nM.
With `NS(=O)(=O)c1ccc(Cc2c(-c3cccc(S(F)(F)(F)(F)F)c3)nn(-c3nc(C(=O)O)cs3)c2CC2CC2)cc1F` the IC50 was < 100 nM.
